Some test systems named below: ALL-PO; JURKAT; SUP-B15.
Common to all, as to assay: selective drug sensitivity score (sDSS, relative to normal bone marrow) (sDSS (score)); higher = more potent and effective on the cell line relative to normal bone marrow cells
Holding throughout (settings): 72 h
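Also: ALL cell lines in 384-well plates, five doses spanning 10,000-fold, each plate scaled between vehicle and 100 µmol/L benzalkonium chloride controls, sDSS an adapted area-under-curve metric.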

`CC(=O)[C@]1(O)Cc2c(O)c3c(c(O)c2[C@@H](O[C@H]2C[C@H](N)[C@H](O)[C@H](C)O2)C1)C(=O)c1ccccc1C3=O` [Idarubicin] (top concentration 1000 nM): the “selective drug sensitivity score” value in the assay on ALL-PO was 1.64; in the assay with JURKAT it was 3.34; in the assay with SUP-B15, 9.74.

Take `COc1cc2nccc(Oc3ccc(NC(=O)NC4CC4)c(Cl)c3)c2cc1C(N)=O` [Lenvatinib] (top concentration 2500 nM): the “selective drug sensitivity score” value in the assay with ALL-PO was 3.86; with JURKAT, -0.24; with SUP-B15 it was 6.46.

On to `N#Cc1ccc(C(c2ccc(C#N)cc2)n2cncn2)cc1` [Letrozole] (top concentration 10000 nM), for which the “selective drug sensitivity score” value with ALL-PO was -0.04; in the assay with JURKAT it was -0.04; with SUP-B15, 0.36.

With `CCNCCS(=O)(=O)NC[C@@]1(c2ccccc2)SC(NC(=O)C(C)(C)C)=NN1C(=O)C(C)(C)C` [Litronesib] (top concentration 1000 nM), the results for the “selective drug sensitivity score” value in the assay with ALL-PO, in the assay with JURKAT and in the assay on SUP-B15 were 14.8, 19.2 and 21.7, respectively.

In the case of `CC[C@H](C)C(=O)O[C@H]1C[C@@H](C)C=C2C=C[C@H](C)[C@H](CC[C@@H]3C[C@@H](O)CC(=O)O3)[C@H]21` [Lovastatin] (top concentration 10000 nM), the figures for the “selective drug sensitivity score” value with ALL-PO, with JURKAT and with SUP-B15 were -0.1, 0.1 and -0.1, respectively.

For the compound `Cn1cc(-c2cnn3c(N)c(Br)c([C@@H]4CCCNC4)nc23)cn1` [MK-8776] (top concentration 2500 nM), the “selective drug sensitivity score” value with ALL-PO is 4.44; in the assay on JURKAT, -1.46; in the assay with SUP-B15 it was -0.06.

Regarding `Cc1cnc(-c2ccccc2C(C)C)nc1NCc1ccc(-n2ccnn2)cc1` [ML323] (top concentration 10000 nM), the “selective drug sensitivity score” value in the assay with ALL-PO is 3.14; in the assay on JURKAT it was 4.14; with SUP-B15, 2.94.

As for `O=C(CCNC(=O)c1ccc(OC(F)(F)F)cc1)N[C@@H]1CCCc2ccccc21` [ML390] (top concentration 50000 nM), the “selective drug sensitivity score” value in the assay with ALL-PO is 5.3; in the assay on JURKAT it was 14.8; in the assay with SUP-B15, 19.1.

As for `CN(C)C(=N)NC(=N)N` [Metformin] (top concentration 100000 nM), the “selective drug sensitivity score” value with ALL-PO, in the assay with JURKAT and in the assay on SUP-B15 was -0.02 each time.

`C[C@H]1C[C@@H]2[C@H]([C@@H](O)C[C@@]3(C)[C@H]2CC[C@]3(O)C(=O)CO)[C@@]2(C)C=CC(=O)C=C12` [Methylprednisolone] (top concentration 10000 nM): the results for the “selective drug sensitivity score” value in the assay with ALL-PO, with JURKAT and in the assay with SUP-B15 were 34.1, -2 and 32.9, respectively.

`FC(F)(F)c1ccc(/C=C/c2nc(COc3ccc(CCCCn4ccnn4)cc3)co2)cc1` [Mubritinib] (top concentration 1000 nM): the “selective drug sensitivity score” value with ALL-PO was determined as 6.16; in the assay with JURKAT, 24; with SUP-B15 it was 10.6.

For `COc1cc2c(cc1OC(C)C)[C@H](c1ccc(Cl)cc1)N(c1ccc(N(C)C[C@H]3CC[C@H](N4CCN(C)C(=O)C4)CC3)cc1)C(=O)C2` [NVP-CGM097] (top concentration 25000 nM), the “selective drug sensitivity score” value with ALL-PO is -3.84; in the assay with JURKAT, -4.44; in the assay with SUP-B15 it was 18.6.

Turning to `CCOc1cc2ncc(C#N)c(Nc3ccc(OCc4ccccn4)c(Cl)c3)c2cc1NC(=O)/C=C/CN(C)C` [Neratinib] (top concentration 1000 nM), the figures for the “selective drug sensitivity score” value in the assay on ALL-PO, with JURKAT and in the assay on SUP-B15 were 5.28, 1.48 and 1.48, respectively.

As for `COc1ncc(-c2ccc3nccc(-c4ccnnc4)c3c2)cc1NS(=O)(=O)c1ccc(F)cc1F` [Omipalisib] (top concentration 1000 nM), the “selective drug sensitivity score” value in the assay with ALL-PO is 21.9; in the assay with JURKAT, 4.2; in the assay on SUP-B15 it was 7.3.

Take `CN1CCN(c2cc(C(=O)Nc3ccc4c(c3)-c3c(c(C(N)=O)nn3-c3ccc(F)cc3)CC4)c(Cl)cn2)CC1` [PHA-408] (top concentration 10000 nM): the “selective drug sensitivity score” value in the assay with ALL-PO stood at 0.78; with JURKAT it was 0.18; in the assay on SUP-B15 it was 3.08.

In the case of `OC[C@H]1O[C@@H](n2cnc3c2N=CNC[C@H]3O)C[C@@H]1O` [Pentostatin] (top concentration 10000 nM), the “selective drug sensitivity score” value is -0.44 in the assay on ALL-PO, -0.44 with JURKAT and 0.66 with SUP-B15.

With `CC(C)N(C[C@H]1O[C@@H](n2cnc3c(N)ncnc32)[C@H](O)[C@@H]1O)[C@H]1C[C@@H](CCc2nc3cc(C(C)(C)C)ccc3[nH]2)C1` [Pinometostat] (top concentration 1000 nM), the “selective drug sensitivity score” value in the assay on ALL-PO, with JURKAT and in the assay with SUP-B15 was 0 throughout.

Consider `Cc1ccc(=O)n(-c2ccccc2)c1` [Pirfenidone] (top concentration 10000 nM), for which the “selective drug sensitivity score” value with ALL-PO, in the assay on JURKAT and with SUP-B15 was 0 each time.

In the case of `NCCNc1ccc(NCCN)c2c1C(=O)c1ccncc1C2=O` [Pixantrone] (top concentration 10000 nM), the “selective drug sensitivity score” value with ALL-PO, in the assay on JURKAT and in the assay on SUP-B15 was -2.76 in each case.

With `c1cc(CN2CCCNCCNCCCNCC2)ccc1CN1CCCNCCNCCCNCC1` [Plerixafor] (top concentration 10000 nM), the “selective drug sensitivity score” value in the assay on ALL-PO, with JURKAT and in the assay with SUP-B15 was 0 each time.

Consider `O=C(c1ccc(OCCN2CCCCC2)cc1)c1c(-c2ccc(O)cc2)sc2cc(O)ccc12` [Raloxifene] (top concentration 10000 nM), for which the “selective drug sensitivity score” value in the assay on ALL-PO is -0.38; in the assay with JURKAT it was -0.58; with SUP-B15 it was -2.18.

Regarding `CN(C)C(=O)c1cc2cnc(Nc3ccc(N4CCNCC4)cn3)nc2n1C1CCCC1` [Ribociclib] (top concentration 10000 nM), the results for the “selective drug sensitivity score” value with ALL-PO, in the assay with JURKAT and in the assay with SUP-B15 were 0.98, 0.48 and 1.58, respectively.

For `CN1CCN(CCOc2cc(OC3CCOCC3)c3c(Nc4c(Cl)ccc5c4OCO5)ncnc3c2)CC1` [Saracatinib] (top concentration 10000 nM), the “selective drug sensitivity score” value was -0.02 in the assay with ALL-PO, -0.62 with JURKAT and 17 in the assay with SUP-B15.

As for `C=CC(=O)Nc1cccc(Nc2nc(Nc3ccc(OCCOC)cc3)ncc2F)c1` [Spebrutinib] (top concentration 1000 nM), the “selective drug sensitivity score” value with ALL-PO amounted to 4.14; in the assay with JURKAT, 0.74; in the assay with SUP-B15 it was 0.04.

For `C[C@@H]1CN(Cc2ccc(F)cc2)[C@@H](C)CN1C(=O)c1cc2c(C(=O)C(=O)N(C)C)cn(C)c2cc1Cl` [Talmapimod] (top concentration 10000 nM), the “selective drug sensitivity score” value with ALL-PO was 3.2; in the assay on JURKAT, 0.9; in the assay with SUP-B15, 2.8.

Take `C[C@@H](C(=O)O)c1ccc(-c2ccccc2)c(F)c1` [Tarenflurbil] (top concentration 10000 nM): the “selective drug sensitivity score” value with ALL-PO was -0.16; in the assay on JURKAT, -0.16; in the assay with SUP-B15, 0.44.

`CNC(=O)c1cc(COc2nnc(Nc3ccc(Cl)cc3)c3ccoc23)ccn1` [Telatinib] (top concentration 10000 nM): the “selective drug sensitivity score” value in the assay on ALL-PO, in the assay on JURKAT and with SUP-B15 was 0 throughout.

The values above are taken from the supplement of paper PMC8967900.
